Measurements taken from ChEMBL document CHEMBL3399979, “Discovery of novel Bruton's tyrosine kinase (BTK) inhibitors bearing a pyrrolo[2,3-d]pyrimidine scaffold” (Bioorg Med Chem, 2015).
pIC50: −log10 of the molar value.

Key:
[1] = biological target: T1, Tyrosine-protein kinase BTK (Homo sapiens, UniProt Q06187); assay: Inhibition of BTK (unknown origin) after 1 hr by TR-FRET analysis
[2] = biological target: T1, Tyrosine-protein kinase BTK; assay: Inhibition of BTK in human Ramos cells after 20 mins by fluorescence assay; format: cell-based

T1 sequence (Q06187 whole entry): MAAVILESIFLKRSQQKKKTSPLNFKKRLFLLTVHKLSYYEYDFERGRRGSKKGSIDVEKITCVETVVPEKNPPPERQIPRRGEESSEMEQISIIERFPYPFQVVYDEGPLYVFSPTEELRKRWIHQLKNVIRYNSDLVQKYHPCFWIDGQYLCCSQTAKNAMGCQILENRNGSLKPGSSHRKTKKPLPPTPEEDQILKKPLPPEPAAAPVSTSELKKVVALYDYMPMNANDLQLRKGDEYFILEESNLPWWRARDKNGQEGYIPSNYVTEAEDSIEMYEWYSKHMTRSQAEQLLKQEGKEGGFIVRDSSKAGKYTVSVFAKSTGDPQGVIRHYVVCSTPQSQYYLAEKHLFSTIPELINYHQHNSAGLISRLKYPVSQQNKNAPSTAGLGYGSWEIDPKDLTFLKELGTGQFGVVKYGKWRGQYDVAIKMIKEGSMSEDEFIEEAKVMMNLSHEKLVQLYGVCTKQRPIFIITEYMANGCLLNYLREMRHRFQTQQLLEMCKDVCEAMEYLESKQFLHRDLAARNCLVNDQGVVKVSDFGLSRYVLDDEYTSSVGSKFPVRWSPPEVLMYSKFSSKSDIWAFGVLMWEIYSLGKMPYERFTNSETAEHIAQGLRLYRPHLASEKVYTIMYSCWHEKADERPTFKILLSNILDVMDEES

Structure (SMILES)	pIC50 [1]	pIC50 [2]
COc1ccc(-c2cc3c(-c4cccc(-n5ccc6cc(C7CC7)cc(F)c6c5=O)c4CO)ncnc3[nH]2)cc1	7.23	7.41
CC(=O)c1ccc(-c2cc3c(-c4cccc(-n5ccc6cc(C7CC7)cc(F)c6c5=O)c4CO)ncnc3[nH]2)cc1	7.38	7.31
CN(C)C(=O)c1ccc(-c2cc3c(-c4cccc(-n5ccc6cc(C7CC7)cc(F)c6c5=O)c4CO)ncnc3[nH]2)cc1	7.75	7.82
O=C(c1ccc(-c2cc3c(-c4cccc(-n5ccc6cc(C7CC7)cc(F)c6c5=O)c4CO)ncnc3[nH]2)cc1)N1CCOCC1	7.74	8.00
O=C(c1ccc(-c2cc3c(-c4cccc(-n5ccc6cc(C7CC7)cc(F)c6c5=O)c4CO)ncnc3[nH]2)cc1)N1CCCCC1	7.29	7.19
CN(C)Cc1ccc(-c2cc3c(-c4cccc(-n5ccc6cc(C7CC7)cc(F)c6c5=O)c4CO)ncnc3[nH]2)cc1	7.50	7.48
O=c1c2c(F)cc(C3CC3)cc2ccn1-c1cccc(-c2ncnc3[nH]c(-c4ccc(CN5CCOCC5)cc4)cc23)c1CO	7.20	7.92
CN(C)C(=O)c1cccc(-c2cc3c(-c4cccc(-n5ccc6cc(C7CC7)cc(F)c6c5=O)c4CO)ncnc3[nH]2)c1	7.16	7.06
CC(=O)c1cc(-c2cc3c(-c4cccc(-n5ccc6cc(C7CC7)cc(F)c6c5=O)c4CO)ncnc3[nH]2)cs1	6.93	7.24
COc1ccc(-c2cc3c(-c4cccc(-n5ccc6cc(C7CC7)cc(F)c6c5=O)c4CO)ncnc3[nH]2)cn1	6.70	7.13
CN(C)C(=O)c1cc2c(-c3cccc(-n4ccc5cc(C6CC6)cc(F)c5c4=O)c3CO)ncnc2[nH]1	5.87	5.81
CN(C)C(=O)N1CCC(c2cc3c(-c4cccc(-n5ccc6cc(C7CC7)cc(F)c6c5=O)c4CO)ncnc3[nH]2)CC1	6.24	5.78
CN(C)C(=O)N1CC=C(c2cc3c(-c4cccc(-n5ccc6cc(C7CC7)cc(F)c6c5=O)c4CO)ncnc3n2C)CC1	< 5.30	< 5.30

The remaining lines, values ahead:

pIC50 [1]	pIC50 [2]	Structure (SMILES)
7.80	8.10	CS(=O)(=O)N1CC=C(c2cc3c(-c4cccc(-n5ccc6cc(C7CC7)cc(F)c6c5=O)c4CO)ncnc3[nH]2)CC1
5.80	< 5.30	O=c1c2c(F)cc(C3CC3)cc2ccn1-c1cccc(-c2ncnc3[nH]ccc23)c1CO
7.04	7.10	O=c1c2c(F)cc(C3CC3)cc2ccn1-c1cccc(-c2ncnc3[nH]c(-c4ccccc4)cc23)c1CO
7.13	6.68	O=c1c2c(F)cc(C3CC3)cc2ccn1-c1cccc(-c2ncnc3[nH]c(-c4ccc(O)cc4)cc23)c1CO
6.87	7.19	Nc1cccc(-c2cc3c(-c4cccc(-n5ccc6cc(C7CC7)cc(F)c6c5=O)c4CO)ncnc3[nH]2)c1
7.41	7.33	O=c1c2c(F)cc(C3CC3)cc2ccn1-c1cccc(-c2ncnc3[nH]c(-c4cc[nH]n4)cc23)c1CO
7.67	7.42	Cn1ccc(-c2cc3c(-c4cccc(-n5ccc6cc(C7CC7)cc(F)c6c5=O)c4CO)ncnc3[nH]2)n1
7.11	6.46	O=c1c2c(F)cc(C3CC3)cc2ccn1-c1cccc(-c2ncnc3[nH]c(C4=CCCCC4)cc23)c1CO
7.17	7.34	O=c1c2c(F)cc(C3CC3)cc2ccn1-c1cccc(-c2ncnc3[nH]c(C4=CCSCC4)cc23)c1CO
7.49	7.02	O=c1c2c(F)cc(C3CC3)cc2ccn1-c1cccc(-c2ncnc3[nH]c(C4=CCNCC4)cc23)c1CO
7.24	6.90	CN1CC=C(c2cc3c(-c4cccc(-n5ccc6cc(C7CC7)cc(F)c6c5=O)c4CO)ncnc3[nH]2)CC1
7.82	7.67	CC(=O)N1CC=C(c2cc3c(-c4cccc(-n5ccc6cc(C7CC7)cc(F)c6c5=O)c4CO)ncnc3[nH]2)CC1
8.15	7.67	CN(C)C(=O)N1CC=C(c2cc3c(-c4cccc(-n5ccc6cc(C7CC7)cc(F)c6c5=O)c4CO)ncnc3[nH]2)CC1
8.32	7.77	O=C(N1CC=C(c2cc3c(-c4cccc(-n5ccc6cc(C7CC7)cc(F)c6c5=O)c4CO)ncnc3[nH]2)CC1)N1CCOCC1
7.60	7.29	CNC(=O)N1CC=C(c2cc3c(-c4cccc(-n5ccc6cc(C7CC7)cc(F)c6c5=O)c4CO)ncnc3[nH]2)CC1
7.78	7.59	CN(C)S(=O)(=O)N1CC=C(c2cc3c(-c4cccc(-n5ccc6cc(C7CC7)cc(F)c6c5=O)c4CO)ncnc3[nH]2)CC1
7.61	7.96	O=c1c2c(F)cc(C3CC3)cc2ccn1-c1cccc(-c2ncnc3[nH]c(C4=CCN(C5COC5)CC4)cc23)c1CO
7.34	7.16	O=c1c2c(F)cc(C3CC3)cc2ccn1-c1cccc(-c2ncnc3[nH]c(C4=CCN(c5ncccn5)CC4)cc23)c1CO
